In patent US8981111B2 (priority 2008, dated 2015):

Assay: log P (HPLC/MS data of the preparation examples)
Details: HCOOH (formic acid)

Structure (SMILES) | chromatographic logP
Cc1ncc(C(=NO)c2ccccc2)n1C [1-(1,2-dimethyl-1H-imidazol-5-yl)-N-hydroxy-1-phenylmethanimine] | 0.43
Cn1ccnc1C(=NO)c1ccccc1 [N-hydroxy-1-(1-methyl-1H-imidazol-2-yl)-1-phenylmethanimine] | 0.24

Same assay, conditions: HPLC (LC-MS) method [b]: pH 2.7, 0.1% formic acid in water and acetonitrile, linear gradient 10% to 95% acetonitrile; EEC directive 79/831 Annex V.A8

Structure (SMILES) | log p
CCCCCOC(=O)Nc1nc(CON=C(c2cccs2)c2cncn2C)cs1 (single isomer, unassigned) [Example 459] | 2.16^[b]
CCCCCC(=O)Nc1nc(CON=C(c2cc(C(F)(F)F)ccn2)c2ncccc2C)cs1 [Example 490] | 3.76^[b]
CCCCCCCCCC(=O)Nc1cccc(CON=C(c2ccsc2)c2cncn2C)n1 [Example 441] | 3.02^[b]
Cc1cccnc1C(=NOCc1csc(NC(=O)CC(C)C)n1)c1cc(C(F)(F)F)ccn1 [Example 488] | 3.31^[b]
Cn1cncc1C(=NOCc1cccc(N)n1)c1ccsc1 (single isomer, unassigned) [Example 418] | 0.39^[b]
CCCC(=O)Nc1cccc(CON=C(c2ccsc2)c2cncn2C)n1 [Example 437] | 1.52^[b]
CCCCCC(=O)Nc1ccnc(CON=C(c2ncc(C(F)(F)F)cc2Cl)c2ncnn2C)n1 [Example 474] | 3.51^[b]

Same assay, conditions: LC-MS, method [b]: pH 2.7 with 0.1% formic acid in water and acetonitrile, linear gradient 10% to 95% acetonitrile

Structure (SMILES) | log p
CC(C)CC(=O)Nc1ccnc(CON=C(c2ccccc2)c2cncn2C)n1 [Example 112] | 1.99^[b]
CC(C)CC(=O)Nc1cccc(CON=C(c2ccccc2)c2nccn2C)n1 [Example 36] | 1.89^[b]
CCCCCOC(=O)Nc1cccc(CON=C(c2ccccc2C)c2ncnn2C)n1 [Example 45] | 4.06^[b]
Cn1ccnc1C(=NOCc1cccc(NC(=O)C(C)(C)C)n1)c1cccs1 [Example 413] | 1.78^[b]
Cn1ccnc1C(=NOCc1cccc(NC(=O)CSc2ccccc2)n1)c1ccccc1 [Example 283] | 2.63^[b]
CC(C)CCC(=O)Nc1cccc(CON=C(c2cccc(F)c2)c2nccn2C)n1 [Example 348] | 2.42^[b]
Cn1ncnc1C(=NOCc1cccc(N)n1)c1cccs1 [Example 391] | 0.82^[b]
CCC(=O)Nc1ccnc(CON=C(c2ccccc2)c2nccn2C)n1 [Example 63] | 1.38^[b]
Cn1nncc1C(=NOCc1cccc(NC(=O)C(C)(C)C)n1)c1ccccc1 [Example 66] | 3.11^[b]
Cn1cncc1C(=NOCc1csc(NC(=O)COc2ccccc2)n1)c1ccccc1 [Example 127] | 2.01^[b]
CC(C)(C)C(=O)Nc1ccnc(CON=C(c2ccsc2)c2snc(Cl)c2Cl)n1 [Example 384] | 4.67^[b]
CC(C)=C(OC(=O)C(C)C)c1ncc(C(=NOCc2nccc(NC(=O)C(C)C)n2)c2ccccc2)n1C [Example 110] | 2.77^[b]
CCCOC(=O)Nc1cccc(CON=C(c2ccccc2)c2ncnn2C)n1 [Example 89] | 3.15^[b]
CCCCCOC(=O)Nc1nc(CON=C(c2ccccc2)c2ocnc2C)cs1 (single isomer, unassigned) [Example 322] | 3.87^[b]
C=CCCOC(=O)Nc1cccc(CON=C(c2ccccc2)c2ncnn2C)n1 [Example 305] | 3.21^[b]
CCCC(=O)Nc1ccnc(CON=C(c2ccccc2)c2cncn2C)n1 [Example 129] | 1.5^[b]
CCCCCOC(=O)Nc1ccnc(CON=C(c2ccccc2)c2nccn2C)n1 [Example 55] | 2.28^[b]

Same assay, conditions: method [b]: LC-MS at pH 2.7, 0.1% formic acid in water / acetonitrile, linear gradient 10% to 95% acetonitrile

Structure (SMILES) | log p
CCCCCC(=O)Nc1cccc(CON=C(c2ccccc2)c2snnc2C)n1 [Example 216] | 4.46^[b]
Cn1ncnc1C(=NOCc1cccc(NC(=O)Cc2cccc(F)c2)n1)c1ccccc1 [Example 235] | 3.15^[b]
CCCCCC(=O)Nc1cccc(CON=C(c2ccccc2)c2csc(C)n2)n1 (single isomer, unassigned) [Example 188] | 3.89^[b]
Cc1nnsc1C(=NOCc1cccc(NC(=O)CCC2CCCCC2)n1)c1ccccc1 [Example 223] | 5.41^[b]
Cc1nc(C(=NOCc2cccc(NC(=O)Cc3ccccc3)n2)c2ccccc2)cs1 (single isomer, unassigned) [Example 191] | 3.87^[b]
